The values below come from patent publication US20250074876A1, “DIPHENOLIC COMPOUNDS AND PREPARATION METHODS THEREOF” (PURPANA (BEIJING) TECHNOLOGIES CO., LTD., priority 2022, published 2025).

For series [1], the system named is melanin cell. The experiment in a line: B-2 Inhibition test of cell melanin synthesis (chromogenic method). The settings on record: for inhibitory effect on cellular melanin synthesis (in words): at a lower concentration (no more than 0.10% g/m L); for inhibitory effect on cellular melanin synthesis compared with kojic acid: comparison with kojic acid. The class given is cell-based. As for the experimental part:
According to cytotoxicity test data, an inhibition test of cell melanin synthesis was performed within the range allowed by cytotoxicity. The range allowed by cytotoxicity is a range of sample concentration corresponding to a relative cell viability more than 60% in the cytotoxicity test. The samples were grouped according to different concentrations, and a test index was melanin content, a test model was melanin cell, and a detection method is a chromogenic method. Cells at logarithmic growth phase were collected, and the cells were inoculated into 24-well plates at a cell density of 2×10^5 cells/well. After 24 h of incubation in the incubator (37° C., 5% CO2), according to the results of cytotoxicity, the drug was added according to the concentration requirements. The untreated cells were used as a blank control, and three parallel controls were set up in each group. After the drug added, the incubation was continued in the incubator (37° C., 5% CO2) for 48 h. The supernatant was discarded, 1 mL of 1 M NaOH containing 10% DMSO was added, and the plate was placed in a thermostatic oven for incubation at 60° C. for 1 h. After restoring to a room temperature, 200 μL mixed solution of each well was transferred to a 96-well plate, and 1 M NaOH containing 10% DMSO was used as a blank control. The absorbance value was read at 405 nm, and the inhibition rate of cellular melanin synthesis was calculated according to the following equation (5): […]

The test system of series [2] is human melanoma cells (G361). Kind of series: B-1 Cytotoxicity test (MTT, relative cell viability). It counts as cell-based. The following applies: 24 h. As for the experimental part: • a) Cell inoculation: human melanoma cells (G361) were inoculated into 96-well plates at a density of 1×10^4 cells/well, and the 96-well plates were placed in an incubator (37° C., 5% CO2) overnight for incubation. • b) Experimental grouping: the experiments were set up with a zeroing group, a control group, a positive control group, and a sample group. In the sample group, each sample was set up with different concentration gradients, and 3 replicate wells were set up under each concentration gradient. • c) Solution preparation: different concentrations of sample working solution were prepared according to the concentrations in Table 4. • d) Drug administration: a drug administration was performed until the cell plating rate in the 96-well plate reaches 40%-60%. In the control group, 200 μL of culture medium containing 10% PBS (Gibco) […] was added to each well; in the positive control group, 200 μL of culture medium containing 10% DMSO was added to each well; in the sample group, 200 μL of culture medium containing the corresponding concentration of sample was added to each well; in the zeroing group, no cell was inoculated and only 200 μL of cell culture medium was added. After the drug administration completed, the 96-well plates were placed in an incubator (37° C., 5% CO2) for incubation. • e) Detection: after incubation for 24 h, the supernatant was discarded, and MTT working solution (0.5 mg/mL) was added and incubated at 37° C. in the dark for 4 h. After incubation, the supernatant was discarded, and 100 μL DMSO was added into each well and the OD value was obtained at 490 nm. • f) Relative cell viability was calculated by the following equation (4): […]

For the compound `CCCC(c1ccc(O)cc1O)N1CCCCC1=O` (centres unmarked) [I-e], in series [1], the “inhibitory effect on cellular melanin synthesis (in words)” value (from here on “inhibitory effect … (in words)”) was “have an inhibitory effect on cellular melanin synthesis”.
Consider `CC(c1ccc(O)cc1O)N1CCCC1=O` (centres unmarked) [I-h], for which, in series [1], the “inhibitory effect … (in words)” value is “have an inhibitory effect on cellular melanin synthesis”.
Consider `CC(c1ccccc1)c1cc(C(C)c2ccccc2)c(O)cc1O` (centres unmarked) [V-a], for which, in series [1], the “inhibitory effect … (in words)” value was “have an inhibitory effect on cellular melanin synthesis” and the “inhibitory effect on cellular melanin synthesis compared with kojic acid” value (from here on “inhibitory effect … compared with kojic acid”) is listed as “superior to that of kojic acid”.
For the compound `CCCC(c1ccc(O)cc1O)N1CCCC1=O` (centres unmarked) [I-f], in series [1], the “inhibitory effect … (in words)” value is listed as “have an inhibitory effect on cellular melanin synthesis”.
For `CC(c1cc(C(C)N2CCCC2=O)c(O)cc1O)N1CCCC1=O` (centres unmarked) [V-c], in series [1], the “inhibitory effect … (in words)” value is on record as “have an inhibitory effect on cellular melanin synthesis”.
As to `CC(c1ccccc1)c1ccc(O)cc1O` (centres unmarked) [control group, phenylethyl resorcinol, reference compound], the Relative cell viability in series [2] (G361 cells, MTT, sample concentration 0.007813 % (g/mL)) came to 106.32%; in series [2] (G361 cells, MTT, sample concentration 0.015625 % (g/mL)), 114.68%; in series [2] (G361 cells, MTT, sample concentration 0.03125 % (g/mL)), 101.15%; in series [2] (G361 cells, MTT, sample concentration 0.125 % (g/mL)), 100.10%; in series [2] (G361 cells, MTT, sample concentration 0.25 % (g/mL)) it was 106.07%; in series [2] (G361 cells, MTT, sample concentration 0.5 % (g/mL)), 96.77%.
For `CCC(c1ccc(O)cc1O)N1CCCC1=O` (centres unmarked) [I-d], in series [1], the “inhibitory effect … (in words)” value is “have an inhibitory effect on cellular melanin synthesis” and the “inhibitory effect … compared with kojic acid” value is reported as “superior to that of kojic acid”.
With `CC(c1ccc(O)cc1O)N1CCCCCC1=O` (centres unmarked) [I-g], the Relative cell viability was 117.8165% in series [2] (human, 0.007813 % (g/mL)); 120.6987% in series [2] (human, 0.015625 % (g/mL)); 107.8966% in series [2] (human, 0.03125 % (g/mL)); 113.8122% in series [2] (human, 0.125 % (g/mL)); 120.9409% in series [2] (human, 0.25 % (g/mL)); 107.9874% in series [2] (human, 0.5 % (g/mL)). Besides, the “inhibitory effect … (in words)” value in series [1] is given as “have an inhibitory effect on cellular melanin synthesis”.
For `CC(c1ccc(O)cc1O)N1CCCCC1=O` (centres unmarked) [I-a], in series [1], the “inhibitory effect … (in words)” value was “have an inhibitory effect on cellular melanin synthesis” and the “inhibitory effect … compared with kojic acid” value is “superior to that of kojic acid”.
